The results in this text go back to patent US10870647B2, “Imidazopyridine derivative, method for preparing same, and pharmaceutical composition containing same as active ingredient for preventing or treating cancer” (DAEGU-GYEONGBUK MEDICAL INNOVATION FOUNDATION, priority 2016, dated 2020).

The structures appear in SMILES notation.

The test system of one assay is K562. As to the kind of experiment: Cancer cell proliferation inhibition, CCK-8, 72 hours. The class given is cell-based. The note with it: Homo sapiens, K562, 72 h. In outline:
(§1)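 A375 cells (2×10^3/well) attached overnight, then received 9 three-fold dilutions (0.0015-10 μM). K562 and Ba/F3-T315I (1×10^4/well) were given 9-point series (3-fold and 5-fold respectively), final 0-10 μM. After 72 h at 37°C, CCK-8 was added for 2 h; blank-subtracted OD450 gave IC50.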

The next assay concerns A375. The assay is described as above. The class given is cell-based. As to conditions: Homo sapiens, A-375, 72 h. In outline:
as §1

A further assay addresses T1, T315I (Ba/F3) (Homo sapiens, UniProt P00519, T315I, cells depend on it).
T1 construct: fused on or other part: P11274 (Breakpoint cluster region protein)
The description is as above. The class given is cell-based. As to conditions: read-out: T315I (Ba/F3) IC50. In outline:
as §1

For the next assay, the system named is MDA-MB-231. As to the kind of experiment: Real time cell proliferation, IncuCyte ZOOM, 72 hours. Format: cell-based. The note with it: Homo sapiens, MDA-MB-231, 72 h.
The target of the next assay is T2, RET(V804M) (Homo sapiens, UniProt P07949, V804M).
T2 construct: purchased Reaction Biology Co
Description: Enzyme inhibitory activity (Kd), Reaction Biology Co. Format: binding.

A further assay has as its target T3, RET (Homo sapiens, UniProt P07949).
T3 construct: purchased Reaction Biology Co
The description is as above. Format: binding.

The target of the next assay is T4, FGFR4 (Homo sapiens, UniProt P22455).
T4 construct: purchased Reaction Biology Co
Described as above. The class given is binding.

The test system of a further assay is GIST430/654. Description: Cancer cell proliferation inhibition, cell viability after 72 hours. As to conditions: GIST-430/654, imatinib-resistant. The class given is cell-based. In short, it runs like this: (§2)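 GIST-T1/816, GIST-430 and GIST-430/654 seeded at 2×10^4/100 μl; GIST-R3 (patient-derived, imatinib/sunitinib-resistant) likewise. Compounds added next day at 8 concentrations; viability after 72 hours by EZ-cytox or CellTiter-Glo, as % of vehicle-treated cells, IC50 from curves; two independent experiments.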

The subject of another assay is GIST-T1/816. The description is as above. The class given is cell-based. The note with it: Homo sapiens, GISTT1, imatinib-resistant. In outline: as §2
Another assay relates to GIST-T1. The assay is described as above. Format: cell-based. As to conditions: Homo sapiens, GISTT1, imatinib-sensitive.
A further assay relates to GIST430. The description is as above. Format: cell-based. As to conditions: Homo sapiens, imatinib-sensitive. In short, it runs like this: as §2

T4 sequence (P22455 22-802): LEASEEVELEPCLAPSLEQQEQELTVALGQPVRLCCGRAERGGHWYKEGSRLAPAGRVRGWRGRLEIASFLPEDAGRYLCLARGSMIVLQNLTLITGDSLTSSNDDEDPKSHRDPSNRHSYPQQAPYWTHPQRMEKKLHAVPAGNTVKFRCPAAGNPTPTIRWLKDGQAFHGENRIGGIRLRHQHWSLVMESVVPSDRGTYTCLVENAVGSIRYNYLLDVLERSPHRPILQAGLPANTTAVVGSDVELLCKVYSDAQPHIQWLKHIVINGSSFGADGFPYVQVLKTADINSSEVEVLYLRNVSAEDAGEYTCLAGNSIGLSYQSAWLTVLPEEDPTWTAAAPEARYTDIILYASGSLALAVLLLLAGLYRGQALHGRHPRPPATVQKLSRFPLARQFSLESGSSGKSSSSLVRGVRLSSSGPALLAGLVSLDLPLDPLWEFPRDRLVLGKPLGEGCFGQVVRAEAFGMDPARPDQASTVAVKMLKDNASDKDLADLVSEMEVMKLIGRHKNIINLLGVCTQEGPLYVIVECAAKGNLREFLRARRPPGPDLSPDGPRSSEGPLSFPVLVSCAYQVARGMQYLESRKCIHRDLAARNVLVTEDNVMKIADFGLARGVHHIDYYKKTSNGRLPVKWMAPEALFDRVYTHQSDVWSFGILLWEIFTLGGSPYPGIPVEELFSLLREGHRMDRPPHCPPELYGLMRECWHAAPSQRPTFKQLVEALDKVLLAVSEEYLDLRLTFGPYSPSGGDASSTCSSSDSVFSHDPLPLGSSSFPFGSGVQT
T2 sequence (P07949 29-1114 V804M): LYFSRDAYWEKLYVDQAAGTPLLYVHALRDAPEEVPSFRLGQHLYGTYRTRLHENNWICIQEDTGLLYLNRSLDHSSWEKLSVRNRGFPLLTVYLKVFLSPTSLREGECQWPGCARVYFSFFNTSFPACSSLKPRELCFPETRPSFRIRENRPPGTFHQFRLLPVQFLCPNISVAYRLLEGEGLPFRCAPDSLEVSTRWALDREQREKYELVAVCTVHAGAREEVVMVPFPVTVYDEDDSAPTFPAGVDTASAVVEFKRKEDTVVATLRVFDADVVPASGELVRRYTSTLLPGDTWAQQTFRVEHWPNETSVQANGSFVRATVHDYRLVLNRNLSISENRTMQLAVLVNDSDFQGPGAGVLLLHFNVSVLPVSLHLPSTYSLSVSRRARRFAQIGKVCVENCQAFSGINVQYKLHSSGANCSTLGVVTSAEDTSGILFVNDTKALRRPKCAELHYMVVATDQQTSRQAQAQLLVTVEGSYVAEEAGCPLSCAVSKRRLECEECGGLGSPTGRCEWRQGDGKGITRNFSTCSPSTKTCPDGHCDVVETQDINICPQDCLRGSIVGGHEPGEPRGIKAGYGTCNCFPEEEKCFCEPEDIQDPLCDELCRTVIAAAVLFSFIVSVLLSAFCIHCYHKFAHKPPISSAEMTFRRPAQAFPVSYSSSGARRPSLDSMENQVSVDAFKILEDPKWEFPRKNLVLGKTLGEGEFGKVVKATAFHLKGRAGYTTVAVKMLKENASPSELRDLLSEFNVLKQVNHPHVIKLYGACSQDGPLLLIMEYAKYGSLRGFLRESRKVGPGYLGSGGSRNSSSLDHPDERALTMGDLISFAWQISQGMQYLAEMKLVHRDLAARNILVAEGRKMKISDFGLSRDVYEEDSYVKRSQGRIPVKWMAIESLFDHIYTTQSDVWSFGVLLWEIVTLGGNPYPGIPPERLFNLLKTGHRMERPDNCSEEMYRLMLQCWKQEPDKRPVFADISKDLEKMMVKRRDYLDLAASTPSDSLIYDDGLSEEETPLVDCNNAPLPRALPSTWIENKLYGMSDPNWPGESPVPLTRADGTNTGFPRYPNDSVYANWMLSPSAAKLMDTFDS
T3 sequence (P07949 29-1114): as the sequence (P07949 29-1114 V804M) above, with M776V counted along it

In general, IC50 refers to the concentration at which inhibition is half-maximal. Higher therefore signals lower potency. Broadly, the Kd is a measure of binding affinity in units of concentration. Lower therefore signals a tighter complex. Turning to `CCN1CCN(Cc2ccc(NC(=O)c3ccc(C)c(C#Cc4cnc5c(Nc6cnn(C)c6)cccn45)c3)cc2C(F)(F)F)CC1` [Example 8, N-(4-((4-ethylpiperazin-1-yl)methyl)-3-(trifluoromethyl)phenyl)-4-methyl-3-((8-((1-methyl-1H-pyrazol-4-yl)amino)imidazo[1,2-a]pyridin-3-yl)ethynyl)benzamide], the IC50 was less than 1 nM in the assay on K562, 52 nM in the assay with A375 and 96 nM with MDA-MB-231. Moreover, the GI50 on T315I (Ba/F3) was determined as 32 nM. Besides, the dissociation constant Kd on RET(V804M) stood at 9.1 nM; on RET, 7.5 nM; on FGFR4, 57 nM.

Turning to `Cc1ccc(C(=O)Nc2ccc(CN3CCN(C)CC3)c(C(F)(F)F)c2)cc1C#Cc1cnc2c(Nc3cnn(C)c3)cccn12` [Example 1, 4-methyl-3-((8-((1-methyl-1H-pyrazol-4-yl)amino)imidazo[1,2-a]pyridin-3-yl)ethynyl)-N-(4-((4-methylpiperazin-1-yl)methyl)-3-(trifluoromethyl)phenyl)benzamide], the concentration for half-maximal inhibition (IC50) is less than 1 nM with K562; 26 nM with A375; 187 nM with MDA-MB-231; 332 nM in the assay with GIST430/654; 35.4 nM with GIST-T1/816; 1.9 nM with GIST-T1. The compound also registered an IC50 in the assay on GIST430 of 36.8 nM. On T315I (Ba/F3), the GI50 was found to be 26 nM. Moreover, the figures for the Kd on RET(V804M), at RET and at FGFR4 were 11 nM, 10 nM and 56 nM, respectively.

As to `Cc1cn(-c2cc(NC(=O)c3ccc(C)c(C#Cc4cnc5c(Nc6cnn(C)c6)cccn45)c3)cc(C(F)(F)F)c2)cn1` [Example 12, 4-methyl-N-(3-(4-methyl-1H-imidazol-1-yl)-5-(trifluoromethyl)phenyl)-3-((8-((1-methyl-1H-pyrazol-4-yl)amino)imidazo[1,2-a]pyridin-3-yl)ethynyl)benzamide], the half-maximal inhibitory concentration (IC50) in the assay on K562 is less than 1 nM; in the assay with A375, 942 nM; in the assay on MDA-MB-231, 1190 nM; in the assay on GIST430/654, 564 nM; with GIST-T1/816, 308 nM; with GIST-T1, 12.3 nM. Besides, the IC50 in the assay on GIST430 came to 56.3 nM. Further, at T315I (Ba/F3), the GI50 turned out to be 6.72 nM. In addition, the dissociation constant Kd at RET(V804M) stood at 32 nM; on RET, 25 nM; at FGFR4, 370 nM.

Consider `Cc1ccc(C(=O)Nc2cccc(C(F)(F)F)c2)cc1C#Cc1cnc2c(Nc3cnn(C4CCNCC4)c3)cccn12` [Example 11, 4-methyl-3-((8-((1-(piperidin-4-yl)-1H-pyrazol-4-yl)amino)imidazo[1,2-a]pyridin-3-yl)ethynyl)-N-(3-(trifluoromethyl)phenyl)benzamide], for which the IC50 is less than 1 nM in the assay with K562; 1250 nM with A375; 679 nM in the assay with MDA-MB-231; 560 nM in the assay with GIST430/654; 40.7 nM with GIST-T1/816; 0.8 nM with GIST-T1. The IC50 in the assay on GIST430 is 63.6 nM. Further, the GI50 at T315I (Ba/F3) worked out at 6.34 nM.

For `Cc1ccc(NC(=O)C2(C(=O)Nc3ccc(F)cc3)CC2)cc1C#Cc1cnc2c(Nc3cnn(C(C)C)c3)cccn12` [Example 78], the IC50 came to 1200 nM in the assay with K562, 4600 nM in the assay with A375 and 8780 nM with MDA-MB-231. For the same compound, the GI50 at T315I (Ba/F3) turned out to be 3240 nM.
